Patent US11135445B2, “Antimicrobial photodynamic inactivation procedure and system” (The General Hospital Corporation, priority 2014, dated 2021)

Experiments:
[1] = test system: MRSA; assay: In vivo PDI of burn infected with bioluminescent MRSA; parameters: species or system murine
Excerpt: In another related embodiment, the implementation of invention as discussed in Example 1 was extended to in vivo studies in a murine infection model of burn and carried out with the use of bioluminescent MRSA and in vivo imaging. The goal here was to verify the increase of the efficacy of PDI-process of bacterial killing by adding KI to MB in an in vivo infection model.
Aggregately, FIGS. 17A through 17E represent a set of 5 representative bioluminescence image time courses from the burn (each time course from a single mouse in each of the 5 groups) infected with MRSA. […] The amount of light required to eradicate bacteria from the wound was much less when the bacteria treated with the (MB+KI) solution was irradiated than when MB alone was used to pre-treat bacteria prior to irradiation.

[2] = test system: E. coli; assay: MB-mediated PDI in vitro with/without KI; format: cell-based, Escherichia coli K12 (ATCC 33780); conditions: without light
Method: (§1) 2) Staphylococcus aureus (NCTC 8325) and Escherichia coli K12 (ATCC 33780) were chosen as representative Gram (+) and Gram (−) bacteria respectively, for in vitro studies. A colony of bacteria was suspended in 25 ml of brain heart infusion (BHI) broth (Becton, Dickinson, and Company, Franklin Lakes, N.J.) and grown overnight in a shaker incubator (New Brunswick Scientific, Edison, N.J.) at 120 rpm in aerobic condition at 37° C. An aliquot of 1 ml from overnight suspension was refreshed in fresh BHI for 2 hours at 37° C. to mid-log phase. Cell concentration was estimated by measuring the optical density (OD) at 600 nm [OD of 0.8=10^8 colony forming units (CFU) cells/mL]. Bacterial suspension was centrifuged, washed and re-suspended in PBS to arrest microbial growth, and used (10^8 CFU) for the in vitro or in vivo experiments.
(§2) In vitro PDI studies were carried with S. aureus and with E. coli. […] An aliquot of 100 ul was used as dark control from each sample, another (100 ul) was irradiated with 5 J/cm^2 dose of light (660 nm light) and then placed in a new 96 well plate. The aliquots were serially diluted 10-fold in PBS to give dilutions of 10^1 to 10^5 times in addition to the original concentration. From each dilution 10 microleter aliquots were seeded horizontally on BHI agar. […] Each experiment was performed at least three times.

[3] = test system: S. aureus; assay: MB-mediated PDI in vitro with/without KI; format: cell-based, Staphylococcus aureus (NCTC 8325); conditions: without light
Method: as §1, §2

[4] = test system: S. aureus; assay: Bacteria added after completion of light delivery (MB); format: cell-based, Staphylococcus aureus; conditions: solution irradiated 5 J/cm^2, incubation 5-30 minutes
Method: (§3) To verify if long-lived species such as molecular iodine (I2) or hypoiodous acid (HOI) could be responsible for increased bacterial killing we added bacteria after completion of light delivery.
(§4) We irradiated with 5 J/cm^2 the solutions containing MB or MB+KI to generate the iodine species observed in the spectra described above. Since […] is a stable molecule, and even HOI is reasonably stable with a measurable half-life, by incubating the cells in a solution that could contain photochemically produced bactericidal concentrations of I2 or HOI, we expected to observe bacterial killing. We added bacterial cells and we evaluated the survival fraction of bacteria in an incubation time range between 5 and 30 minutes.

[5] = test system: E. coli; assay: as above; format: cell-based, Escherichia coli; conditions: solution irradiated 5 J/cm^2, incubation 5-30 minutes
Method: as §3, §4

CN(C)c1ccc2nc3ccc(=[N+](C)C)cc-3sc2c1 [MB, Methylene blue]
bacterial bioluminescence during PDI ([1]; 50 μM MB, with or without 10 mM KI, 660 nm up to 150 J/cm^2): light dose-dependent reduction
decrease in bacterial bioluminescence ([1]; 660 nm light, n=6): around 2 log unit
bacterial re-growth / recurrence after PDI ([1]; follow-up over days after PDI): not effective to prevent recurrence
dark toxicity [2]: lack of killing without light
dark toxicity [3]: lack of killing without light
killing of bacteria added after irradiation of the solution [4]: did not observe any bacterial killing
killing of bacteria added after irradiation of the solution [5]: did not observe any bacterial killing
